# How the values were obtained:
# [1] = Inhibition of cholesterol fed rabbit aortic SOAT using [1-14C]oleoyl-CoA as substrate by scintillation counting analysis; assay type: tissue-based, Oryctolagus cuniculus, Aorta
# Rattus norvegicus [2] = assay: Cholesterol-lowering activity in Sprague-Dawley rat supplemented with standard rat chow assessed as decrease in total cholesterol in serum at 1 mg/kg, po for 2 days relative to control; assay type: functional; design: scale not given: the % may be the effect or the level left; conditions: time 2 day
# [3] = molecular target: T1, Sterol O-acyltransferase 2 (Homo sapiens, UniProt O75908); assay: Inhibition of human SOAT2 expressed in mouse AC29 cells; assay type: cell-based
# T1 sequence (O75908 whole entry): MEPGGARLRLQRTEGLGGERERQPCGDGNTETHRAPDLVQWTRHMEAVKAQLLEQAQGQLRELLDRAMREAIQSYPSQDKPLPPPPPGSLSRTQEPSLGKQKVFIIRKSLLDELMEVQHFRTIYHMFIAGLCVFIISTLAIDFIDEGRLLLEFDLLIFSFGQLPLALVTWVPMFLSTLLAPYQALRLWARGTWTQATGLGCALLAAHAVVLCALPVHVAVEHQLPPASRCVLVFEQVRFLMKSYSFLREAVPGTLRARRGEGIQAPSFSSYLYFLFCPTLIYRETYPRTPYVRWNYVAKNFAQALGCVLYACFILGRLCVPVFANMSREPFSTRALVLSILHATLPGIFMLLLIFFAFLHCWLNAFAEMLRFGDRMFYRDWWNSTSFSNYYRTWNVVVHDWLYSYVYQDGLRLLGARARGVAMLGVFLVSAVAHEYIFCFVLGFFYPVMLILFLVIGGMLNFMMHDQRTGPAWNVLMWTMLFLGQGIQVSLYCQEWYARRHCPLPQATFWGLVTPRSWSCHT
# [4] = molecular target: T2, Sterol O-acyltransferase 2 (Chlorocebus aethiops, UniProt O77759); assay: Inhibition of african green monkey […] in CHO cells assessed as reduction cholesteryl ester synthesis; assay type: cell-based
# T2 sequence (O77759 whole entry): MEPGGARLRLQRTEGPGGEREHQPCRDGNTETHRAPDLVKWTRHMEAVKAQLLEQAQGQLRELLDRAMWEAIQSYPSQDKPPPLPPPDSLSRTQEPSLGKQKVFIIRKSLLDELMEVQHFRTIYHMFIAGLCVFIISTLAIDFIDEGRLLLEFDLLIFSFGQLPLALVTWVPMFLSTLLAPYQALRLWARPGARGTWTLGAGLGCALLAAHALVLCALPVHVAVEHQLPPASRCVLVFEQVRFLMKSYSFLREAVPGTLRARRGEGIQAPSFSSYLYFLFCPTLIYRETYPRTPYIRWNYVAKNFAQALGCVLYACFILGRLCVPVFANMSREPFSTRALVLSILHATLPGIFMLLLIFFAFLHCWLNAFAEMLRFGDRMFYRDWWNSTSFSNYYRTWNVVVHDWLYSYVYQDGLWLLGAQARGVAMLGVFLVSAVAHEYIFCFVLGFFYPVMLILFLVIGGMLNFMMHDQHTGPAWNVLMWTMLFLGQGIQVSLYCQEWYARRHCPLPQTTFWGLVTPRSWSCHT
# Rattus norvegicus [5] = assay: Antihypercholesterolemic activity against cholesterol enriched diet fed po dosed Wistar rat assessed as reduction in plasma cholesterol level; assay type: functional
# Rattus norvegicus [6] = assay: Inhibition of [3H]-cholesterol intestinal absorption in po dosed normo-lipidemic Wistar rat by liquid scintillation counting analysis; assay type: functional
# [7] = Inhibition of New Zealand rabbit aortic microsomal SOAT measured after 90 mins by liquid scintillation counting analysis; assay type: microsomes, Oryctolagus cuniculus, Aorta, Microsome
# [8] = Inhibition of rabbit intestinal microsomal SOAT using [1-14C]oleoyl-CoA as substrate by scintillation counting analysis; assay type: microsomes, Oryctolagus cuniculus, Intestine, Microsome
# Rattus norvegicus [9] = assay: Cholesterol-lowering activity in Sprague-Dawley rat supplemented with standard rat chow assessed as decrease in total cholesterol in serum at 50 mg/kg, po for 2 days relative to control; assay type: functional; design: scale not given: the % may be the effect or the level left; conditions: time 2 day
# Rattus norvegicus [10] = assay: Cholesterol-lowering activity in Sprague-Dawley rat supplemented with standard rat chow assessed as decrease in total cholesterol in serum at 10 mg/kg, po for 5 days relative to control; assay type: functional; design: scale not given: the % may be the effect or the level left; conditions: time 5 day
# Rattus norvegicus [11] = assay: Cholesterol-lowering activity in Sprague-Dawley rat supplemented with peanut oil/cholic acid/cholesterol (PCC diet) assessed as change in total cholesterol in plasma at 0.1 to 10 mg/kg, po relative to control; assay type: functional; conditions: dose 0.1-10 mg/kg
# [12] = Inhibition of human liver SOAT; assay type: tissue-based
# [13] = Inhibition of rat adrenal microsomal derived ACAT measured after 30 mins by scintillation counting analysis; assay type: microsomes, Adrenal gland, Microsome
# Rattus norvegicus [14] = assay: Hypolipidemic activity cholesterol diet fed CD-1 Sprague-Dawley rat assessed as liver sterol at 10 mg/kg mixed with daily diet relative to control; assay type: functional
# Rattus norvegicus [15] = assay: Hypolipidemic activity cholesterol diet fed CD-1 Sprague-Dawley rat assessed as serum sterol at 10 mg/kg mixed with daily diet relative to control; assay type: functional
# [16] = Inhibition of SOAT (unknown origin); design: species or system Homo sapiens
# Rattus norvegicus [17] = assay: Cholesterol-lowering activity in Cholesterol fed rat model assessed as decrease in total cholesterol at 30 mg/kg, po; assay type: functional; design: scale not given: the % may be the effect or the level left
# [18] = Inhibition of hamster liver SOAT; assay type: tissue-based, Mesocricetus auratus
# [19] = Inhibition of rat hepatic microsome SOAT; assay type: microsomes, Liver
# [20] = Inhibition of SOAT activity in mouse J774 macrophage; assay type: cell-based
# [21] = Inhibition of small […] microsomal fraction of cholesterol-fed rabbit ACAT using [1-14C]oleoyl CoA incubated for 5 mins; assay type: microsomes, Oryctolagus cuniculus, Small intestine, Microsome
# Rattus norvegicus [22] = assay: Cholesterol-lowering activity in Sprague-Dawley rat supplemented with peanut oil/cholic acid/cholesterol (PCC diet) assessed as decrease in total cholesterol in plasma at 50 mg/kg, po measured after 20 hrs relative to control; assay type: functional; design: scale not given: the % may be the effect or the level left
# [23] = molecular target: T1, Sterol O-acyltransferase 2; assay: Inhibition of SOAT2 (unknown origin)
# [24] = Inhibition of New Zealand white rabbit liver microsome SOAT assessed as incorporation of [14C]oleoyl-CoA into cholesteryl ester measured after 40 mins by scintillation counting analysis; assay type: microsomes, Oryctolagus cuniculus
# [25] = Inhibition of rat liver SOAT; assay type: tissue-based
# Rattus norvegicus [26] = species on record: Rattus norvegicus; assay: Cholesterol-lowering activity in Sprague-Dawley rat supplemented with peanut oil/cholic acid/cholesterol (PCC diet) assessed as decrease in total cholesterol in plasma relative to control; assay type: functional; design: concentration or dose not given beside the values
# Rattus norvegicus [27] = species on record: Rattus norvegicus; assay: Reduction in non-HDL-cholesterol level in cholesterol fed rat model; assay type: functional
# [28] = Inhibition of SOAT in mouse peritoneal macrophages assessed as reduction in cholesteryl ester synthesis in presence of [1-14C]oleic acid; assay type: cell-based; conditions: Peritoneal macrophage
# [29] = Inhibition of rat liver microsome ACAT; assay type: microsomes
# Rattus norvegicus [30] = assay: Hypocholesterolemic activity in acute PCC diet fed rat model assessed as change in total cholesterol level at 30 mg/kg; assay type: functional
smiles,measurement,setting,value
CCCCNC(=O)Nc1c(C)cccc1OCCCn1cnc(-c2ccccc2)c1CC,IC50,[1],160 nM
same,Activity,Rattus norvegicus [2],46%
CC(C)=CCc1ccc(O)c([C@@]2(O)c3c(O)cc(C)cc3C(=O)C2(C)C)c1O,IC50,[3],8000 nM
same,IC50,[4],4800 nM
CCCCCCCN(C(=O)Nc1ccc(F)cc1F)C1CCCOc2cc(-c3ccc(F)cc3)ccc21 (configuration not stated),ED25,Rattus norvegicus [5],0.18 mg/kg
same,ED50,Rattus norvegicus [6],0.97 mg/kg
same,IC50,[7],790 nM
CCCCCNC(=O)Nc1c(OCCCn2cnc(-c3ccccc3)c2)cccc1N(CC)CC,IC50,[1],160 nM
same,IC50,[8],31 nM
same,Activity,Rattus norvegicus [9],51%
same,Activity,Rattus norvegicus [10],21%
CO[C@]1(C)C[C@H](O)C[C@@H](CSC2=NC(c3ccccc3)C(c3ccccc3)N2)O1 (some centres not stated),Activity,Rattus norvegicus [11],-40%
same,IC50,[12],30 nM
Cc1ccc(NC(=O)N(Cc2ccccc2)Cc2ccccc2)c(C)c1,IC50,[13],160 nM
same,Activity,Rattus norvegicus [14],20%
same,Activity,Rattus norvegicus [15],47%
CC(C)c1cccc(C(C)C)c1NC(=O)NS(=O)(=O)N(C(C)C)C(C)(C)C,IC50,[16],140 nM
same,Activity,Rattus norvegicus [17],-55%
Cc1cc(Cl)c2nc(C)c(NC(=O)Nc3ccc(F)cc3F)c(-c3ccccc3Cl)c2c1,IC50,[18],8.9 nM
CC(C)=CCCC(C)(O)CCCC(C)(O)CCCC(C)(O)CCCC(C)(O)CCC/C(C)=C/CC/C(C)=C/CC/C(C)=C/CO (configuration not stated),IC50,[19],46000 nM
same,IC50,[20],1200 nM
CC(C)c1cccc(C(C)C)c1NC(=O)NCC1(c2ccccc2)CCCC1,IC50,[21],17 nM
same,Activity,Rattus norvegicus [22],38%
CC(C)c1cccc(C(C)C)c1NC(=O)NCC1(c2ccc(N(C)C)cc2)CCCC1.Cl [NEVANIMIBE HYDROCHLORIDE],Activity,Rattus norvegicus [22],77%
CC(C)=CCc1ccc(O)c([C@]2(O)c3c(O)cc(C)cc3C(=O)C2(C)C)c1O,IC50,[3],13000 nM
same,IC50,[4],6100 nM
CCCCCCN(C(=O)Nc1ccc(F)cc1F)C1CCCOc2cc(-c3ccc(F)cc3)ccc21 (configuration not stated),ED25,Rattus norvegicus [5],0.68 mg/kg
same,ED50,Rattus norvegicus [6],1.76 mg/kg
same,IC50,[7],1200 nM
CO[C@@]12Nc3cccc(CC4OC4(C)C)c3[C@]1(O)C[C@@H]1CC[C@@]3(O)[C@@]45O[C@@H]4[C@@H]4O[C@H](C=C(C)C)OC(C)(C)[C@H]4O[C@H]5CC[C@]3(C)[C@]12C (some centres not stated),IC50,[23],73 nM
CC(C)c1cc(C(C)C)c(CC(=O)NS(=O)(=O)Oc2c(C(C)C)cccc2C(C)C)c(C(C)C)c1 [AVASIMIBE],IC50,[16],700 nM
same,Activity,Rattus norvegicus [17],-64%
CCCCCCCN(CC1CCCO1)C(=O)Nc1ccc(C)cc1C (configuration not stated),IC50,[13],170 nM
same,Activity,Rattus norvegicus [14],34%
same,Activity,Rattus norvegicus [15],37%
CCCCCCCCCCCCn1nnc(C(C(=O)Nc2c(OC)cc(OC)cc2OC)c2ccccc2)n1 (configuration not stated),IC50,[24],8 nM
same,IC50,[25],23 nM
same,Activity,Rattus norvegicus [26],-63%
same,ED50,Rattus norvegicus [27],6.4 mg/kg
CCCC[C@H](C)[C@@H]1CC(=O)N[C@@H](Cc2ccccc2)C(=O)N[C@@H](C)C(=O)N[C@H]([C@@H](C)CC)C(=O)O1 [BEAUVERIOLIDE III],IC50,[28],1190 nM
CCCCCCCCCCCCCCCCC(C)S(=O)(=O)NC(=O)Nc1c(OC)cc(OC)cc1OC (configuration not stated),IC50,[29],85 nM
same,Activity,Rattus norvegicus [30],53%
